For nine compounds, pest or weed control results are on record in patent publication US20110086759A1, “CHEMICAL COMPOUNDS” (SYNGENTA CROP PROTECTION, INC., priority 2007, published 2011).

What all share (type): in vivo
The test system of assay [1] is Amaranthus retoflexus (AMARE). The experiment in a line: Pre-emergence biological efficacy, glasshouse pot test. The note with it: Amaranthus retroflexus, 312 h; pre-emergence, 1,000 g/ha, evaluated after 13 days (100=total damage; 0=no damage); read-out: Percentage damage AMARE. A digest of the protocol:
(§1)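 Glasshouse pot test: spray on soil one day after sowing, 1000 or 250 g/ha. Conditions 24/16 °C day/night, 14 h light, 65% humidity. Plant damage scored 0–100 at 13 days.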

Assay [2] has as its system Setaria faberi (SETFA). Described as above. The note with it: 312 h, pre-emergence, 1,000 g/ha, evaluated after 13 days (100=total damage; 0=no damage), read-out: Percentage damage SETFA. In outline: as §1
In assay [3] the test system is Echinochloa crus-galli (ECHCG). Described as above. As to conditions: 312 h, pre-emergence, 1,000 g/ha, evaluated after 13 days (100=total damage; 0=no damage), read-out: Percentage damage ECHCG. In outline:
as §1

Assay [4] relates to Ipomea hederaceae (IPOHE). Described as above. As to conditions: Ipomoea hederacea, 312 h; pre-emergence, 1,000 g/ha, evaluated after 13 days (100=total damage; 0=no damage); read-out: Percentage damage IPOHE. In outline:
as §1

Assay [5] concerns Solanum nigrum (SOLNI). The assay is described as above. As to conditions: 312 h, pre-emergence, 1,000 g/ha, evaluated after 13 days (100=total damage; 0=no damage), read-out: Percentage damage SOLNI. In outline: as §1
Assay [6] concerns Alopecurus myosuroides (ALOMY). The assay is described as above. The note with it: 312 h, pre-emergence, 1,000 g/ha, evaluated after 13 days (100=total damage; 0=no damage), read-out: Percentage damage ALOMY. In outline:
as §1

Assay [7] relates to Amaranthus retoflexus (AMARE). The experiment in a line: Post-emergence biological efficacy, glasshouse pot test. As to conditions: Amaranthus retroflexus, 312 h; post-emergence, 1,000 g/ha, evaluated after 13 days (100=total damage; 0=no damage); read-out: Percentage damage caused to weed species, AMARE. A digest of the protocol: (§2)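 Pot-grown weeds were sprayed 8 days after sowing with test compound in acetone/water (50:50) with 0.5% Tween 20 at 1000 or 250 g/ha. Glasshouse at 24/16° C day/night, 14 h light, 65% humidity. Damage scored 0-100 (100 = total damage) after 13 days.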

The test system of assay [8] is Setaria faberi (SETFA). Described as above. The note with it: 312 h, post-emergence, 1,000 g/ha, evaluated after 13 days (100=total damage; 0=no damage), read-out: Percentage damage caused to weed species, SETFA. A digest of the protocol: as §2
In assay [9] the test system is Echinochloa crus-galli (ECHCG). Described as above. The note with it: 312 h, post-emergence, 1,000 g/ha, evaluated after 13 days (100=total damage; 0=no damage), read-out: Percentage damage caused to weed species, ECHCG. A digest of the protocol: as §2
For assay [10], the system named is Ipomea hederaceae (IPOHE). Described as above. As to conditions: Ipomoea hederacea, 312 h; post-emergence, 1,000 g/ha, evaluated after 13 days (100=total damage; 0=no damage); read-out: Percentage damage caused to weed species, IPOHE. A digest of the protocol:
as §2

In assay [11] the test system is Solanum nigrum (SOLNI). Described as above. The note with it: 312 h, post-emergence, 1,000 g/ha, evaluated after 13 days (100=total damage; 0=no damage), read-out: Percentage damage caused to weed species, SOLNI. In outline: as §2
Assay [12] relates to Alopecurus myosuroides (ALOMY). Described as above. As to conditions: 312 h, post-emergence, 1,000 g/ha, evaluated after 13 days (100=total damage; 0=no damage), read-out: Percentage damage caused to weed species, ALOMY. A digest of the protocol:
as §2

As to `COC(=O)c1nc(C2CC2)nc(NCCN2CCNC2=O)c1Cl` [Compound 4-219, 5-Chloro-2-cyclopropyl-6-methoxycarbonyl-4-[2-(2-oxo-imidazolidin-1-yl)ethylamino]-pyrimidine], the pest or weed control at 1000 g/ha in assay [1] amounted to 60%; in the assay on Setaria faberi (SETFA) [2], 0%; in assay [3], 0%; in assay [4], 90%; in the assay on Solanum nigrum (SOLNI) [5], 30%; in assay [6], 0%. The pest or weed control at 1000 g/ha in assay [7] turned out to be 50%; in the assay with Setaria faberi (SETFA) [8], 10%; in [9], 0%; in assay [10], 50%; in the assay on Solanum nigrum (SOLNI) [11], 50%; in assay [12] it was 0%.

`COC(=O)c1nc(C2CC2)nc(NCCN2CCOCC2)c1Cl` [Compound 4-220, 5-Chloro-2-cyclopropyl-6-methoxycarbonyl-4-[2-(morpholin-4-yl)ethylamino]-pyrimidine]: the pest or weed control at 1000 g/ha in [1] came out at 60%; in the assay on Setaria faberi (SETFA) [2], 0%; in assay [3] it was 30%; in [4] it was 50%; in the assay with Solanum nigrum (SOLNI) [5], 40%; in assay [6], 0%. Moreover, the pest or weed control at 1000 g/ha was 100% in assay [7]; 40% in the assay on Setaria faberi (SETFA) [8]; 30% in assay [9]; 100% in assay [10]; 90% in the assay on Solanum nigrum (SOLNI) [11]; 20% in [12].

Consider `COC(=O)c1nc(C2CC2)nc(NCCc2ccccc2)c1Cl` [Compound 4-221, 5-Chloro-2-cyclopropyl-6-methoxycarbonyl-4-(2-phenylethyl-amino)-pyrimidine], for which the pest or weed control at 1000 g/ha in assay [1] amounted to 100%; in the assay on Setaria faberi (SETFA) [2], 60%; in assay [3], 60%; in assay [4], 100%; in the assay on Solanum nigrum (SOLNI) [5], 90%; in assay [6], 60%. The pest or weed control at 1000 g/ha in assay [7] amounted to 100%; in the assay on Setaria faberi (SETFA) [8], 70%; in assay [9], 40%; in assay [10], 100%; in the assay on Solanum nigrum (SOLNI) [11] it was 80%; in [12], 30%.

For `COC(=O)c1nc(C2CC2)nc(NCCc2ccc(S(N)(=O)=O)cc2)c1Cl` [Compound 4-222, 4-[2-(4-Amino-sulphonylphenyl)-ethylamino]-5-chloro-2-cyclo-propyl-6-methoxy-carbonylpyrimidine], the pest or weed control at 1000 g/ha in assay [1] is 30%; in the assay on Setaria faberi (SETFA) [2], 0%; in assay [3], 0%; in assay [4] it was 10%; in the assay on Solanum nigrum (SOLNI) [5], 0%; in assay [6] it was 0%. For the same compound, the pest or weed control at 1000 g/ha in assay [7] came out at 30%; with Setaria faberi (SETFA) [8], 0%; in assay [9], 0%; in assay [10], 60%; with Solanum nigrum (SOLNI) [11], 20%; in assay [12], 0%.

As to `COC(=O)c1nc(C2CC2)nc(NCCc2cccs2)c1Cl` [Compound 4-224, 5-Chloro-2-cyclopropyl-6-methoxycarbonyl-4-[2-(thiophen-2-yl)ethylamino]-pyrimidine], the pest or weed control at 1000 g/ha in [1] came out at 20%; in the assay with Setaria faberi (SETFA) [2], 0%; in assay [3], 0%; in assay [4], 70%; in the assay with Solanum nigrum (SOLNI) [5], 30%; in [6], 0%. For the same compound, the pest or weed control at 1000 g/ha in assay [7] turned out to be 100%; in the assay on Setaria faberi (SETFA) [8] it was 30%; in [9], 10%; in assay [10], 50%; with Solanum nigrum (SOLNI) [11], 70%; in assay [12] it was 10%.

Regarding `COC(=O)c1nc(C2CC2)nc(NCCc2c[nH]c3ccccc23)c1Cl` [Compound 4-226, 5-Chloro-2-cyclopropyl-4-[2-(indol-3-yl)ethylamino]-6-methoxycarbonyl-pyrimidine], the pest or weed control at 1000 g/ha in assay [1] was found to be 70%; in the assay on Setaria faberi (SETFA) [2], 0%; in assay [3] it was 10%; in assay [4], 100%; in the assay on Solanum nigrum (SOLNI) [5], 60%; in assay [6], 0%. For the same compound, the pest or weed control at 1000 g/ha in assay [7] turned out to be 100%; with Setaria faberi (SETFA) [8], 50%; in assay [9], 10%; in assay [10], 60%; in the assay on Solanum nigrum (SOLNI) [11], 80%; in assay [12] it was 30%.

In the case of `COC(=O)c1nc(C2CC2)nc(NCCc2c[nH]c3ccc(OC)cc23)c1Cl` [Compound 4-227, 5-Chloro-2-cyclopropyl-6-methoxycarbonyl-4-[2-(5-methoxyindol-3-yl)-ethylamino]-pyrimidine], the pest or weed control at 1000 g/ha in assay [1] was 20%; in the assay on Setaria faberi (SETFA) [2], 0%; in assay [3], 0%; in [4], 50%; in the assay on Solanum nigrum (SOLNI) [5] it was 30%; in [6], 0%. The pest or weed control at 1000 g/ha in assay [7] is 70%; in the assay on Setaria faberi (SETFA) [8], 40%; in assay [9], 30%; in assay [10], 70%; with Solanum nigrum (SOLNI) [11], 80%; in assay [12] it was 10%.

Regarding `COC(=O)c1nc(C2CC2)nc(NCCc2ccccn2)c1Cl` [Compound 4-228, 5-Chloro-2-cyclopropyl-6-methoxycarbonyl-4-[2-(pyrid-2-yl)ethylamino]-pyrimidine], the pest or weed control at 1000 g/ha in [1] is 70%; with Setaria faberi (SETFA) [2], 0%; in [3], 0%; in assay [4] it was 40%; in the assay on Solanum nigrum (SOLNI) [5], 40%; in [6], 0%. Also, the pest or weed control at 1000 g/ha in [7] turned out to be 90%; in the assay with Setaria faberi (SETFA) [8], 50%; in assay [9] it was 40%; in assay [10], 70%; in the assay on Solanum nigrum (SOLNI) [11], 80%; in assay [12] it was 10%.

For `COC(=O)c1nc(C2CC2)nc(NCCc2cc(C(F)(F)F)cc(Cl)n2)c1Cl` [Compound 4-229, 5-Chloro-4-[2-(6-chloro-4-trifluoromethyl-pyrid-2-yl)ethylamino]-2-cyclopropyl-6-methoxycarbonyl-pyrimidine], the pest or weed control at 1000 g/ha was 30% in assay [1]; 10% with Setaria faberi (SETFA) [2]; 0% in [3]; 20% in assay [4]; 20% in the assay on Solanum nigrum (SOLNI) [5]; 0% in assay [6]. For the same compound, the pest or weed control at 1000 g/ha in assay [7] came out at 100%; in the assay with Setaria faberi (SETFA) [8], 70%; in assay [9], 20%; in [10], 60%; in the assay with Solanum nigrum (SOLNI) [11] it was 90%; in assay [12], 10%.
